Laboratory results as given in patent publication US20020173505A1, “Medicament” (priority 1999, published 2002).

Key:
[1] = tested on: denuded airway smooth muscle preparations from the guinea-pig; assay: spontaneous tone of denuded guinea-pig airway smooth muscle preparations
Text: The subject-matter of the present invention was inter alia deduced from animal experiments, where a specific behavior of the airway smooth muscle called “spontaneous tone” was examined. The spontaneous tone, which involves a spontaneous continuous contraction in the airway smooth muscle, was studied due to a suspicion that detective regulation of the spontaneous tone could be an important cause of the bronchoconstriction observed in asthmatic patients.
(§1) The examinations of the spontaneous tone were performed in accordance with the methods disclosed in the thesis “Regulation of spontaneous tone in guinea pig trachea” by S.Skogvall, Department of Physiological Sci- ences, Lund University, 1999, which is incorporated herein by reference. As evidenced by these examinations, the airways normally display a highly regular type of oscillating tone if exposed to physiological conditions, and the oscillating tone can be reversibly affected by administration of various substances- When the epithelium is removed, the preparations instead display a strong, smooth type of tone.
A contractile effect of serotonin on airway smooth muscle has been reported in e.g. SkQgvall, S., Korsgren, M-, Grampp, W., J. Appl. Phys., 86:789-798, 1999. […] The spontaneous tone returned to approximately its normal level when the preparations were again exposed to control conditions.

[2] = tested on: human in vitro preparations (airway smooth muscle); assay: spontaneous tone in human in vitro airway preparations; conditions: for nature of the relaxation of spontaneous tone (transient or persistent): human in vitro preparations
Description: as §1
Similar experiments have also been performed on human in vitro preparations, from patients undergoing lobecotomy or pulmectomy due to lung cancer.
Human airways are generally considered to display only a weak contraction when exposed to S-HT. Nevertheless, examinations on spontaneous tone on human in vitro preparations have shown that 5-HT indeed has a contractile component also in this tissue. However, this contraction takes a longer time to develop than in guinea pig and the contractile effect is seen as a termination of the relaxation, rather than an increase of tone from the baseline. In guinea pig trachea, the contraction reaches a maximum after approximately 10 min, and this is followed by a considerable reduction of tone. However, human preparations instead induce a maximum relaxing effect after 5-10 min, which disappears gradually during the following 30-45 min (see FIG. 1).

NCCc1c[nH]c2ccc(O)cc12 [serotonin, 3-(P-aminoethyl)-5-hydroxyindole]
average force level of spontaneous tone ([1]; 1 μM added, denuded preparations with strong, smooth spontaneous tone): increased significantly
spontaneous tone, level relative to force in control (drug-free) conditions ([1]; 10 μM added, denuded preparations): about half
time to maximum contraction ([1]; guinea pig trachea): approximately 10 min
effect on spontaneous tone ([2]; 1 μM, tissue from patients undergoing lobectomy or pulmectomy): significant relaxation
nature of the relaxation of spontaneous tone (transient or persistent) ([2]; FIG. 1): transient relaxation
time over which the relaxing effect gradually disappears after the maximum ([2]; human preparations, FIG. 1): 30 to 45 min
time to maximum relaxing effect ([2]; human preparations, FIG. 1): 5 to 10 min

NCCc1c[nH]c2ccc(C(N)=O)cc12 [5-carboxiamidotryptamine, 5-carboxamidotryptamine]
nature of the relaxation of spontaneous tone (transient or persistent) ([2]; FIG. 1): persistent and not transient

COc1cc(N)c(Cl)cc1C(=O)NC[C@@H]1CCN2CCC[C@@H]12 [SC 53116, 4-amino-5-chloro-N-[[lS, 7aS)-hexahydro-1H-pyrrolizin-l-yl]methyll-2-methoxy-benzamide]
nature of the relaxation of spontaneous tone (transient or persistent) ([2]; FIG. 1): persistent and not transient
